Our source for the IC50 values is US20150353495A1 (PORTOLA PHARMACEUTICALS, INC., priority 2010, published 2015).

What all share (type): biochemical
One experiment deals with T1, JAK1 (Homo sapiens, UniProt P23458).
T1 construct: 5 μl of catalytic domain recombinant Kinase enzyme+Tyr peptide substrate (Invitrogen, CA); purchased Invitrogen
The experiment in a line: Z'-LYTE kinase assay JAK1. How it is done:
(§1) JAK and TYK2 tyrosine phosphorylation activity is measured using the Z′-LYTE™ Technology developed by Invitrogen Corporation (Carlsbad, Calif.). For JAK1, JAK2 and JAK3 the Z′-LYTE™ Kinase Assay Kit-Tyr6 Peptide (part number PV4122) was used. For TYK2 the Z′-LYTE™ Kinase Assay Kit-Tyr6 Peptide (part number PV3192) was used. The Z′-LYTE™ biochemical assay employs a fluorescence resonance energy transfer (FRET) coupled-enzyme format and is based on the differential sensitivity of phosphorylated and non-phosphorylated peptides to proteolitic cleavage. The assay uses a synthetic peptide substrate that is labelled with a donor fluorophore (coumarin) and an acceptor fluorophore (fluorescein) that make up a FRET pair. In the primary reaction (the Kinase Reaction), the kinase transfers the γ-phosphate of ATP to a single tyrosine residue on the substrate, while the presence of a kinase inhibitor in the primary reaction suppresses phosphorylation. In the secondary reaction (the Development Reaction), a site-specific protease (the Development Reagent) is added. The development buffer quenches the Kinase Reaction, while the protease recognizes and cleaves non-phosphorylated Z′-LYTE™ peptide substrate. Cleavage disrupts FRET between the donor and acceptor fluorophores on the non-phosphoryleted substrate, while uncleaved, phosphorylated substrate maintains FRET.
(§2) To test the ability of candidate molecules to inhibit JAK tyrosine phosphorylation activity, molecules are reconstituted in 100% DMSO and serially diluted 1:10 in polypropylene v-bottom microtiter plates. The candidate molecules are then diluted 1:25 into kinase buffer and 2.5 μl transferred into duplicate wells of a 384 well low volume black microtiter assay plate (Corning, USA). The final DMSO concentration in the assay is 1%. The kinase reaction contains 2.5 μl of a candidate molecule, 5 μl of catalytic domain recombinant Kinase enzyme+Tyr peptide substrate (Invitrogen, CA) and 2.5 μl ATP (Invitrogen, CA). The kinase reaction is allowed to procede for 1 hour at room temperature. The protease reaction is initiated by the addition of 5 μl Development Reagent (Invitrogen, CA). After 1 hour incubation at room temperature the fluorescence is measured using a FlexStation plate reader (Molecular Devices, Sunnyvale, Calif.).

A further experiment has as its target T2, JAK2 (Homo sapiens, UniProt O60674).
T2 construct: 5 μl of catalytic domain recombinant Kinase enzyme+Tyr peptide substrate (Invitrogen, CA); purchased Invitrogen
Briefly: Z'-LYTE kinase assay JAK2. How it is done: as §1, §2

For a further experiment, the target named is T3, JAK3 (Homo sapiens, UniProt P52333).
T3 construct: 5 μl of catalytic domain recombinant Kinase enzyme+Tyr peptide substrate (Invitrogen, CA); purchased Invitrogen
The experiment in a line: Z'-LYTE kinase assay JAK3. How it is done:
as §1, §2

T2 sequence (O60674 849-1124 limits assumed): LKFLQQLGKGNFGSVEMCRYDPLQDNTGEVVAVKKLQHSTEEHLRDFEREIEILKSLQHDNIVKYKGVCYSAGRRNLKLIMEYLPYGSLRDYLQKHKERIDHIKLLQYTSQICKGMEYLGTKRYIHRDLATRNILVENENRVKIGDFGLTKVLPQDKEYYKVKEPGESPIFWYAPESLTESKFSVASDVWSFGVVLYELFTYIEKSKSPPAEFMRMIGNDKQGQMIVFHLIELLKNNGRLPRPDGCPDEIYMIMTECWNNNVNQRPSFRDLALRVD
T1 sequence (P23458 875-1153 limits assumed): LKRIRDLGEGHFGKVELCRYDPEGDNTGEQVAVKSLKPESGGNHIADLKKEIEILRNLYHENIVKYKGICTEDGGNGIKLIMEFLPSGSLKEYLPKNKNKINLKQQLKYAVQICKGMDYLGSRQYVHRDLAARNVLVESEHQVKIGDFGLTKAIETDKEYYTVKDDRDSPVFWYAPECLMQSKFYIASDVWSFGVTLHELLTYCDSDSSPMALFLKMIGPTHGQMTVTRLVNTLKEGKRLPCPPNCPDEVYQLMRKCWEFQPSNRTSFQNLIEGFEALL
T3 sequence (P52333 822-1111 limits assumed): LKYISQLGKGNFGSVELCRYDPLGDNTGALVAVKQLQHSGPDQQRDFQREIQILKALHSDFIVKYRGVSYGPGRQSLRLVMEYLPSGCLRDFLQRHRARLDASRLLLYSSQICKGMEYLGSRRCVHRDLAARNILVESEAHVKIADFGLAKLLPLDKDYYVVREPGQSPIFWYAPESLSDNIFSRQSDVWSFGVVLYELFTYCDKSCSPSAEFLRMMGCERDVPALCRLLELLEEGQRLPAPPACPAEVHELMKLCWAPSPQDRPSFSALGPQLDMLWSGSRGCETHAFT

Usually IC50 stands for the concentration needed to halve the response being measured. On to `CN1CCC(C(=O)Nc2cc(Nc3cc(NC4(c5ccccc5)CC4)c(C(N)=O)cn3)ccc2Cl)CC1` [Example 136, 6-(4-chloro-3-(1-methylpiperidine-4-carboxamido)phenylamino)-4-(1-phenylcyclopropylamino)nicotinamide], for which the IC50 at JAK1 was greater than 1000 nM; against JAK2, greater than 1000 nM; against JAK3, 10 to 100 nM.
Consider `NC(=O)c1cnc(Nc2ccc(C3CCOCC3)cc2)cc1NC1CCOCC1` [Example 139, 6-(4-(tetrahydro-2H-pyran-4-yl)phenylamino)-4-(tetrahydro-2H-pyran-4-ylamino)nicotinamide], for which the IC50 against JAK1 is greater than 1000 nM; at JAK2, greater than 1000 nM; at JAK3, 100 to 1000 nM.
As for `NC(=O)c1cnc(Nc2ccc(C3CCOCC3)cc2)cc1NCC1CCOCC1` [Example 140, 4-((tetrahydro-2H-pyran-4-yl)methylamino)-6-(4-(tetrahydro-2H-pyran-4-yl)phenylamino)nicotinamide], the IC50 at JAK1 is greater than 1000 nM; on JAK2, 100 to 1000 nM; at JAK3, 100 to 1000 nM.
Take `NC(=O)c1cnc(Nc2ccc(C3CCOCC3)cc2)cc1NCC1(O)CCCC1` [Example 141, 4-((1-hydroxycyclopentyl)methylamino)-6-(4-(tetrahydro-2H-pyran-4-yl)phenylamino)nicotinamide]: the IC50 against JAK1 was greater than 1000 nM; at JAK2 it was 100 to 1000 nM; against JAK3, 10 to 100 nM.
In the same order, the values of `NC(=O)c1cnc(Nc2ccc(C3CCOCC3)cc2)cc1NCc1ccccc1F` [Example 142, 4-(2-fluorobenzylamino)-6-(4-(tetrahydro-2H-pyran-4-yl)phenylamino)nicotinamide] are greater than 1000 nM, 100 to 1000 nM and 10 to 100 nM.
On to `CCC(=O)N1CCC(c2ccc(Nc3cc(NCC4CCOCC4)c(C(N)=O)cn3)cc2)CC1` [Example 144, 6-(4-(1-propionylpiperidin-4-yl)phenylamino)-4-((tetrahydro-2H-pyran-4-yl)methylamino)nicotinamide], for which the IC50 is greater than 1000 nM against JAK1, 100 to 1000 nM on JAK2 and 10 to 100 nM against JAK3.
On to `CCC(=O)N1CCC(c2ccc(Nc3cc(NCc4cccc(F)c4)c(C(N)=O)cn3)cc2)CC1` [Example 145, 4-(3-fluorobenzylamino)-6-(4-(1-propionylpiperidin-4-yl)phenylamino)nicotinamide], for which the IC50 on JAK1 is greater than 1000 nM; against JAK2, 10 to 100 nM; on JAK3 it was 1 to 10 nM.
Take `CCC(=O)N1CCC(c2ccc(Nc3cc(NC4CCOCC4)c(C(N)=O)cn3)cc2)CC1` [Example 146, 6-(4-(1-propionylpiperidin-4-yl)phenylamino)-4-(tetrahydro-2H-pyran-4-ylamino)nicotinamide]: the figures for the IC50 against JAK1, at JAK2 and against JAK3 were greater than 1000 nM, 100 to 1000 nM and 100 to 1000 nM, respectively.
`CCC(=O)N1CCC(c2ccc(Nc3cc(NC4CCCC4)c(C(N)=O)cn3)cc2)CC1` [Example 147, 4-(cyclopentylamino)-6-(4-(1-propionylpiperidin-4-yl)phenylamino)nicotinamide]: the IC50 was in the range of 100 to 1000 nM against JAK1, 100 to 1000 nM at JAK2 and 10 to 100 nM on JAK3.
As to `CCC(=O)N1CCC(c2ccc(Nc3cc(NCc4ccc(F)c(F)c4)c(C(N)=O)cn3)cc2)CC1` [Example 148, 4-(3,4-difluorobenzylamino)-6-(4-(1-propionylpiperidin-4-yl)phenylamino)nicotinamide], the IC50 against JAK1 was greater than 1000 nM; at JAK2, 100 to 1000 nM; on JAK3, 100 to 1000 nM.
As to `NC(=O)c1cnc(Nc2ccc(C3CCOCC3)cc2)cc1NC1CCCC1` [Example 150, 4-(cyclopentylamino)-6-(4-(tetrahydro-2H-pyran-4-yl)phenylamino)nicotinamide], the IC50 on JAK1, on JAK2 and on JAK3 was 100 to 1000 nM in each case.
On to `NC(=O)c1cnc(Nc2cccc(C3CCOCC3)c2)cc1NC1CCOCC1` [Example 151, 6-(3-(tetrahydro-2H-pyran-4-yl)phenylamino)-4-(tetrahydro-2H-pyran-4-ylamino)nicotinamide], for which the IC50 against JAK1, against JAK2 and against JAK3 was 100 to 1000 nM in each case.
In the case of `NC(=O)c1cnc(Nc2cccc(C3CCOCC3)c2)cc1NCc1ccccc1F` [Example 152, 4-(2-fluorobenzylamino)-6-(3-(tetrahydro-2H-pyran-4-yl)phenylamino)nicotinamide], the IC50 against JAK1 lay in the range of 100 to 1000 nM; on JAK2, 10 to 100 nM; against JAK3 it was 1 to 10 nM.
As for `NC(=O)c1cnc(Nc2ccc(C3CCOCC3)cc2)cc1NCC1CC1` [Example 153, 4-(cyclopropylmethylamino)-6-(4-(tetrahydro-2H-pyran-4-yl)phenylamino)nicotinamide], the figures for the IC50 against JAK1, at JAK2 and against JAK3 were greater than 1000 nM, 100 to 1000 nM and 100 to 1000 nM, respectively.
For `NC(=O)c1cnc(Nc2ccc(C3CCOCC3)cc2)cc1NCC1CCCC1` [Example 154, 4-(cyclopentylmethylamino)-6-(4-(tetrahydro-2H-pyran-4-yl)phenylamino)nicotinamide], the IC50 against JAK1 was greater than 1000 nM; against JAK2 it was 100 to 1000 nM; at JAK3, 10 to 100 nM.
Take `CC(C)(C)CNc1cc(Nc2ccc(C3CCOCC3)cc2)ncc1C(N)=O` [Example 155, 4-(neopentylamino)-6-(4-(tetrahydro-2H-pyran-4-yl)phenylamino)nicotinamide]: the IC50 at JAK1, on JAK2 and against JAK3 was 100 to 1000 nM throughout.
`CC(C)CNc1cc(Nc2ccc(C3CCOCC3)cc2)ncc1C(N)=O` [Example 156, 4-(isobutylamino)-6-(4-(tetrahydro-2H-pyran-4-yl)phenylamino)nicotinamide]: the IC50 against JAK1, at JAK2 and at JAK3 was 100 to 1000 nM each time.
As for `NC(=O)c1cnc(Nc2ccc(C3CCOCC3)cc2)cc1NC1CCCCC1` [Example 157, 4-(cyclohexylamino)-6-(4-(tetrahydro-2H-pyran-4-yl)phenylamino)nicotinamide], the IC50 against JAK1 is greater than 1000 nM; against JAK2, greater than 1000 nM; against JAK3, 100 to 1000 nM.
Turning to `CC(C)c1ccc(Nc2cc(NCc3ccccc3F)c(C(N)=O)cn2)cc1` [Example 158, 4-(2-fluorobenzylamino)-6-(4-isopropylphenylamino)nicotinamide], the IC50 is greater than 1000 nM at JAK1, greater than 1000 nM against JAK2 and 10 to 100 nM on JAK3.
For the molecule `CS(=O)(=O)N1CCC(CNc2cc(Nc3ccc(C4CCOCC4)cc3)ncc2C(N)=O)CC1` [Example 159, 4-((1-(methylsulfonyl)piperidin-4-yl)methylamino)-6-(4-(tetrahydro-2H-pyran-4-yl)phenylamino)nicotinamide], the IC50 was greater than 1000 nM on JAK1, greater than 1000 nM on JAK2 and 100 to 1000 nM on JAK3.
With `CCS(=O)(=O)N1CCC(CNc2cc(Nc3ccc(C4CCOCC4)cc3)ncc2C(N)=O)CC1` [Example 160, 4-((1-(ethylsulfonyl)piperidin-4-yl)methylamino)-6-(4-(tetrahydro-2H-pyran-4-yl)phenylamino)nicotinamide], the IC50 at JAK1, against JAK2 and against JAK3 was greater than 1000 nM in each case.
Regarding `CCC(=O)N1CCC(CNc2cc(Nc3ccc(C4CCOCC4)cc3)ncc2C(N)=O)CC1` [Example 161], the half-inhibitory concentration (IC50) on JAK1, on JAK2 and at JAK3 was greater than 1000 nM each time.
As for `CC(C)c1cccc(Nc2cc(NCc3ccccc3F)c(C(N)=O)cn2)c1` [Example 162, 4-(2-fluorobenzylamino)-6-(3-isopropylphenylamino)nicotinamide], the IC50 against JAK1 was greater than 1000 nM; on JAK2, greater than 1000 nM; on JAK3, 100 to 1000 nM.
In the case of `CN(C)C(=O)N1CCC(Nc2cc(Nc3ccc(C4CCOCC4)cc3)ncc2C(N)=O)CC1` [Example 163, 4-(1-(dimethylcarbamoyl)piperidin-4-ylamino)-6-(4-(tetrahydro-2H-pyran-4-yl)phenylamino)nicotinamide], the IC50 was greater than 1000 nM against JAK1, greater than 1000 nM against JAK2 and 100 to 1000 nM at JAK3.
As to `CCC(=O)N1CCC(Nc2cc(Nc3ccc(C4CCOCC4)cc3)ncc2C(N)=O)CC1` [Example 164, 4-(1-propionylpiperidin-4-ylamino)-6-(4-(tetrahydro-2H-pyran-4-yl)phenylamino)nicotinamide], the IC50 on JAK1, at JAK2 and against JAK3 was greater than 1000 nM in each case.
